Laboratory results as given in patent US7485646B2, “Serotonin 5-HT3 receptor agonist” (Research Foundation Itsuu Laboratory, priority 2004, dated 2009).
Several values for one entry are separate records, joined by “and”; a condition that tells them apart may be missing. Identical values can stand only once. Each block holds one compound with its values, some of them ahead of it.

Experiments:
[1] = biological target: T1, serotonin 5-HT3 receptor (Homo sapiens, UniProt P46098); assay: Serotonin 5-HT3 receptor binding affinity ([3H]-GR-65630 binding inhibition); details: 1 μM test compound, membrane fraction from HEK-293 cells; for inhibition at 1 µM: read-out: [3H]-GR65630 binding inhibition rate at 1 μM
T1 construct: expressed in transfected cells; host or cells: HEK-293 cells (membrane fraction)
T1 sequence (P46098 24-478): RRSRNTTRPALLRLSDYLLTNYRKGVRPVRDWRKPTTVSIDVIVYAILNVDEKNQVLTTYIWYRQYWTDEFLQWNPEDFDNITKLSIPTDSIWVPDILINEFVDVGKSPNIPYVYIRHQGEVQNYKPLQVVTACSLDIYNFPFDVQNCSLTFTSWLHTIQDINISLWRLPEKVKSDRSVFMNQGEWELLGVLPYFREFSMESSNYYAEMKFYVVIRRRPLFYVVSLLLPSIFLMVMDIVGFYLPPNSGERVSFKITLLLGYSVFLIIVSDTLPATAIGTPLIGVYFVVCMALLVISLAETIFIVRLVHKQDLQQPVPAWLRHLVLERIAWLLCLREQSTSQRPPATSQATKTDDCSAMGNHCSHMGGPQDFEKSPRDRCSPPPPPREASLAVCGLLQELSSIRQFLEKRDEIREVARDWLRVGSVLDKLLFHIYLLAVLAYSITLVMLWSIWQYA
Method: Serotonin 5-HT3 receptor binding affinities of the urea derivatives of the present invention and typical compounds among known urea derivatives, N-phenyl-4-methylpiperazine-1-carboxyamide (A), N-(4,5-dichlorophenyl)-4-methylppiperazine-1-carboxyamide (B), N-(3,5-trifluoromethylphenyl)-4-methylpiperazine-1-carboxyamide (C), N-(3-fluorophenyl)-4-methylpiperazine-1-carboxyamide (D) and N-(5-chloro-2-methoxyphenyl)-(4-tert-butyloxycarbonylpiperazine)-1-carboxyamide (E), were determined by the following method, and the results are shown in Table 1. The test compounds of the present invention are mentioned with the example numbers.
According to the method of Boess et al. (Neuropharmacology, 36, 637-647, 1997), affinities were examined by using a membrane fraction obtained from HEK-293 cells and a ligand selective to the serotonin 5-HT3 receptor, [3H]-GR-65630 [3-(5-methyl-1H-imidazol-4-yl)-1-(1-methyl-1H-indol-3-yl)-1-propanone] on the basis of inhibitory actions of the test compounds on the specific binding to GR-65630 as an index.

[2] = test system: cisplatin-induced emesis in beagles; assay: Antiemetic action on cisplatin-induced emesis in dogs; assay type: in vivo; details: for Number of emesis 0 to 120 (minute) / Number of emesis 121 to 360 (minute) / Time of initial occurrence: 0.5 mg/kg i.v. 30 minutes before cisplatin 3 mg/kg i.v., one value per animal
Method: Actions on cisplatin-induced emesis in beagles of 1-(2-hydroxyethyl)-1-methyl-4-(3,5-dichlorophenylcarbamoyl)piperazinium bromide as the compound of the present invention and 5-chloro-2-(1-homopiperazinyl)-7-methylbenzooxazole (F) (International Publication WO00/31073), which is a benzoxazole derivative having a chemical structure similar to that of the novel urea derivative of the present invention among the known serotonin 5-HT3 receptor partially activating agents, were determined by the following method. The compound of the present invention is mentioned with the example number.
After starvation for 16 hours from one day before the day of the test, beagles (each group consisted of two dogs) were given 300 g of feed pellets and intravenously received cisplatin at a dose of 3 mg/kg 30 minutes later. The test compound was intravenously given 30 minutes before the administration of cisplatin, and frequency and time of emesis were monitored over 6 hours.

[3] = biological target: T2, serotonin 5-HT3 receptor (Cavia porcellus, UniProt O70212); assay: Test for serotonin 5-HT3 receptor partially activating action (guinea pig ileum longitudinal muscle contraction); parameters: species or system Hartley guinea pigs; details: for Activating action: guinea pig ileum contraction relative to 2.6 μM serotonin 5-HT; for Antagonistic action: suppression rate of serotonin 5-HT-induced contraction, guinea pig ileum
T2 construct: longitudinal muscle samples were prepared from the ileums of male or female Hartley guinea pigs; from tissue; host or cells: guinea pig ileum longitudinal muscle
T2 sequence (O70212 20-490): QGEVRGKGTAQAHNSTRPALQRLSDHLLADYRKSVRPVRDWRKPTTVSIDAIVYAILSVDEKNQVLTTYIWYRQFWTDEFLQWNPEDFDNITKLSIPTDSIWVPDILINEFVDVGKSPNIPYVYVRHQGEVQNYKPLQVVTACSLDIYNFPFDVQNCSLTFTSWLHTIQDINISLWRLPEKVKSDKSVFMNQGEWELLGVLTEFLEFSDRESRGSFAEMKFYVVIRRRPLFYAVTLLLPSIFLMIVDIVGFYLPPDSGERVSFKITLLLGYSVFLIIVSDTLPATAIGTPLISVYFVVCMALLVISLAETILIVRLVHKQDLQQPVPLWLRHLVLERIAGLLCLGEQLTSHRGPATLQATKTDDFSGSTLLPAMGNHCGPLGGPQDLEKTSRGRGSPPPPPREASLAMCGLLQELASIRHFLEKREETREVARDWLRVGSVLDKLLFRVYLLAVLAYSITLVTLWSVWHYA
Method: The serotonin 5-HT3 receptor antagonistic action and the serotonin 5-HT3 receptor activating action of 1-(2-hydroxyethyl)-1-methyl-4-(3,5-dichlorophenylcarbamoyl)piperazinium iodide as the compound of the present invention were determined according to the method of Butler et al. (Br. J. Pharmacol, 94, 397-412, 1988).
About 30-mm longitudinal muscle samples were prepared from the ileums of male or female Hartley guinea pigs (325±25 g). Each sample was hung down in a Magnus tube filled with 10 ml of Krebs solution (pH 7.4, 32° C.) with ventilation of a mixed gas (95% O2, 5% CO2), and loaded with a tension of 1 g, and contractile responses were measured isometrically. The serotonin 5-HT3 receptor activating action of the test compound was represented in terms of a relative value obtained by comparison of the contraction obtained by adding 2.6 μM of serotonin 5-HT to the sample and the contraction of 50% or more obtained within 5 minutes as a percentage based on the maximum contraction. The serotonin 5-HT3 receptor antagonistic action of the test compound was obtained from the contraction suppression rate obtained by adding serotonin 5-HT to the sample.

SMILES: C=CC[N+]1(C)CCN(C(=O)Nc2cc(Cl)ccc2OC)CC1 [Example 20, 1-Allyl-1-methyl-4-(2-methoxy-5-chlorophenylcarbamoyl)piperazinium iodide]
inhibition at 1 µM [1]: 92%

SMILES: C[N+]1(C)CCN(C(=O)Nc2cc(Cl)cc(Cl)c2)CC1 [Example 9, 1,1-Dimethyl-4-(3,5-dichlorophenylcarbamoyl)piperazinium iodide]
inhibition at 1 µM [1]: 104%

SMILES: Cc1cc(Cl)cc2nc(N3CCCNCC3)oc12 [F, 5-chloro-2-(1-homopiperazinyl)-7-methylbenzooxazole, reference compound]
Time at which emesis occurred after the administration [2]: ≤ 90 min
Number of emesis 0 to 120 (minute) [2]: 14 and 8
Number of emesis 121 to 360 (minute) [2]: 15 and 6
Time of initial occurrence [2]: 88 min and 79 min

SMILES: COc1ccc(Cl)cc1NC(=O)N1CC[N+](C)(CCO)CC1 [Example 21, 1-(2-Hydroxyethyl)-1-methyl-4-(2-methoxy-5-chlorophenylcarbamoyl)-piperazinium iodide]
inhibition at 1 µM [1]: 98%

SMILES: C[N+]1(CCO)CCN(C(=O)Nc2cc(Cl)cc(Cl)c2)CC1.[Br-] [Example 30, 1-(2-Hydroxyethyl)-1-methyl-4-(3,5-dichlorophenylcarbamoyl)-piperazinium bromide]
Emesis at the initial stage of administration (action on the central nerve system) [2]: no emesis was observed at the initial stage
Suppression of cisplatin-induced emesis in dogs (in words) [2]: effectively suppressed
Number of emesis 0 to 120 (minute) [2]: 0
Number of emesis 121 to 360 (minute) [2]: 1 and 0
Time of initial occurrence [2]: 165 min

SMILES: COc1ccc(Cl)cc1NC(=O)N1CC[N+](C)(C)CC1 [Example 19, 1,1-Dimethyl-4-(2-methoxy-5-chlorophenylcarbamoyl)piperazinium iodide]
inhibition at 1 µM [1]: 94%

Now from value to compound, other results behind:

[3H]-GR65630 binding inhibition rate at 1 μM [1]: 5%
SMILES: COc1ccc(Cl)cc1NC(=O)N1CCN(C(=O)OC(C)(C)C)CC1 [E, N-(5-chloro-2-methoxyphenyl)-(4-tert-butyloxycarbonylpiperazine)-1-carboxyamide, reference compound]

inhibition at 1 µM [1]: 98%
SMILES: CCC[N+]1(C)CCN(C(=O)Nc2cc(Cl)cc(Cl)c2)CC1 [Example 12, 1-Propyl-1-methyl-4-(3,5-dichlorophenylcarbamoyl)piperazinium bromide]

inhibition at 1 µM [1]: 105%
SMILES: C=CC[N+]1(C)CCN(C(=O)Nc2cc(Cl)cc(Cl)c2)CC1 [Example 10, 1-Allyl-1-methyl-4-(3,5-dichlorophenylcarbamoyl)piperazinium iodide]

[3H]-GR65630 binding inhibition rate at 1 μM [1]: 22%
SMILES: CN1CCN(C(=O)Nc2ccc(Cl)c(Cl)c2)CC1 [B, N-(4,5-dichlorophenyl)-4-methylppiperazine-1-carboxyamide, reference compound]

[3H]-GR65630 binding inhibition rate at 1 μM [1]: 2%
SMILES: CN1CCN(C(=O)Nc2cc(C(F)(F)F)cc(C(F)(F)F)c2)CC1 [C, N-(3,5-trifluoromethylphenyl)-4-methylpiperazine-1-carboxyamide, reference compound]

inhibition at 1 µM [1]: 104%
Activating action ([3]; 1 μM): 0%
Antagonistic action ([3]; 1 μM): 15%
Activating action ([3]; 3 μM): 4%
Antagonistic action ([3]; 3 μM): 30%
Activating action ([3]; 10 μM): 14%
Antagonistic action ([3]; 10 μM): 37%
Activating action ([3]; 30 μM): 31%
Antagonistic action ([3]; 30 μM): 27%
Activating action ([3]; 100 μM): 23%
Antagonistic action ([3]; 100 μM): 36%
SMILES: C[N+]1(CCO)CCN(C(=O)Nc2cc(Cl)cc(Cl)c2)CC1.[I-] [Example 11, 1-(2-Hydroxyethyl)-1-methyl-4-(3,5-dichlorophenylcarbamoyl)-piperazinium iodide]
Serotonin 5-HT3 receptor agonist character (in words) ([3]; Table 2): having both the serotonin 5-HT3 receptor antagonistic action and the serotonin 5-HT3 receptor activating action

inhibition at 1 µM [1]: 96%
SMILES: C[N+]1(Cc2ccccc2)CCN(C(=O)Nc2cc(Cl)cc(Cl)c2)CC1 [Example 14, 1-Benzyl-1-methyl-4-(3,5-dichlorophenylcarbamoyl)piperazinium bromide]

inhibition at 1 µM [1]: 98%
SMILES: C[N+]1(CC2CC2)CCN(C(=O)Nc2cc(Cl)cc(Cl)c2)CC1 [Example 13, 1-Cyclopropylmethyl-1-methyl-4-(3,5-dichlorophenylcarbamoyl)-piperazinium bromide]
